Experimental data taken from patent US20060135607A1, “Drug for improving prognosis for subarachnoid hemorrhage” (MOCHIDA PHARMACEUTICAL CO., LTD., priority 2003, published 2006).

System: patients with subarachnoid hemorrhage
Experiment: Clinical study of postoperative EPA administration in patients with subarachnoid hemorrhage caused by ruptured aneurysm (GOS, survival, adverse events)
Assay type: in vivo, human
Excerpt: Sixty four patients with subarachnoid hemorrhage caused by the ruptured aneurysm and subjected to surgical operations by the third day after onset (22 males and 42 females of the ages from 30's-80's) were divided into two groups (each having 32 individuals) designated as an EPA-administration group and an EPA-non-administration group. In addition, no difference was recognized in their background factors of both groups. Just after the operation, the EPA administration group received the administration of ethyl eicosapentaenoate (trade name: Epadel, manufactured by Mochida Pharmaceutical Co., Ltd.), 1,800 mg divided in three-doses a day for 14 days. Subsequently, the administration was continued during the hospital stay. At the stage of being impossible to dietary intake, tube-feedings were carried out. EPA suspended in hot water was administered through a stomach tube (Magen Sonde). At that time, for enhancing the absorption of EPA, 50 mg of Urso granule (manufactured by Mitsubishi Pharma Corporation) was administered through the stomach tube 15 minutes before EPA administration. At the stage of being possible to dietary intake, a commercial EPA preparation was administered orally. Furthermore, both groups were treated in combination with basic treatments on subarachnoid hemorrhage. However, some of the drugs were defined as prohibited substances. At the 30th day from the onset of subarachnoid hemorrhage, an evaluation was carried out by the Glasgow Outcome Scale (GOS).

[1] = 30th day from onset, 32 patients per group, 1,800 mg/day
[2] = 32 patients per group, 1,800 mg/day

## CC/C=C\C/C=C\C/C=C\C/C=C\C/C=C\CCCC(=O)OCC [EPA, ethyl eicosapentaenoate]
[1]
  GOS: D (Death), number of patients: 1
  GOS: MD (Moderate disability), number of patients: 6
  GOS: SD (Severe disability), number of patients: 2
  GOS: VS (Vegetative state), number of patients: 2
30th day from onset, 32 patients per group, 1,800 mg/day in three doses, oral or stomach tube, Wilcoxon U test P=0.0128 vs non-administration group
  GOS: GR (Good recovery), number of patients: 21
[2]
  Death, number of patients: 1
  Survival, number of patients: 31
32 patients per group, 1,800 mg/day, Fisher's exact test P=0.0265 vs non-administration group
  Survival rate: 97%
Subarachnoid hemorrhage patients, 1,800 mg/day for 14 days and continued during hospital stay
  Adverse event considered as a result of the EPA administration: not found
